From patent US20180252712A1, “RECEPTOR FOR NOROVIRUS AND USES THEREOF” (priority 2017, published 2018)

B1: sCD300lf: recombinant, soluble ectodomain of mouse CD300lf (residues 20-128 of GenBank AAH57864.1), expressed in E. coli and refolded (protein)
chain: MEDPVTGPEEVSGQEQGSLTVQCRYTSGWKDYKKYWCQGVPQRSCKTLVETDASEQLVKKNRVSIRDNQRDFIFTVTMEDLRMSDAGIYWCGITKGGLDPMFKVTVNIGP

Legend:
MNoV^CW3 [1] = assay: CRISPR screen in BV2-Cas9 cells, sgRNA enrichment after MNoV^CW3 infection; assay type: cell-based, murine norovirus; conditions: for log2 fold enrichment after MNV infection relative to mock infected cells, CW3 MOI 0.05: MNoV^CW3, MOI 0.05, ten days post-infection; for log2 fold enrichment after MNV infection relative to mock infected cells, CW3 MOI 5: MNoV^CW3, MOI 5, ten days post-infection
Description: (§1) BV2 cells were transduced with pXPR_101 (Addgene plasmid 52962) and selected with blasticidin for eleven days. Cas9 activity was assessed by transducing parental BV2 or BV2-Cas9 cells with pXPR_011 (Addgene plasmid 59702), expresses eGFP and a sgRNA targeting eGFP at an MOI<1 [1]. Cells were transduced for 2 days and subsequently, selected for five days with puromycin and the frequency of eGFP expression was assessed by flow cytometry. The mouse ASIAGO sgRNA CRISPR library contains six independent genome wide pools which each pool containing a unique sgRNA targeting each of 20,077 mouse genes. Four ASIAGO pools were independently used to generate the BV2 library (Doench et al submitted). Each ASIAGO pool was delivered by lentiviral transduction of 5×10^7 BV2 cells at an MOI ˜0.2. This equates to 1×10^7 transduced cells, which is sufficient for the integration of each sgRNA 500 independent times. Two days post transduction, puromycin was added to the media and transduced cells were selected for five days. For each experimental condition, 1×10^7 BV2-Cas9 cells containing sgRNAs were seeded in a T175 tissue culture flask. Cells were infected with either MNoV^CW3 or MNoV^CR6 at MOls of 0.05 and 5. Mock infected cells were harvested 48 hrs after seeding and served as a reference for sgRNA enrichment analysis. Ten days post-infection genomic DNA was isolated from surviving cells using a Qiamp DNA mini kit according to manufacturer instructions (Qiagen).
(§2) Illumina sequencing and STARS analysis was performed as described previously (Doench et al, in press). Briefly, genomic DNA was aliquoted into multiple wells of a 96-well plate with up to 10 μg of DNA in 50 μl total volume. A PCR mastermix consisting of ExTaq DNA polymerase (Clontech), ExTaq buffer, dNTP, P5 stagger primer, and water was generated. 40 μl of PCR master mix, and 10 μl of a barcoded primer was added to each well containing 50 μl of DNA. Samples were PCR amplified as follows: 95° C. for 1 min., followed by 28 cycles of 94° C. for 30 sec., 52.5° C. for 30 sec., 72° C. for 30 sec. with a final 10 min. at 72° C. PCR product was purified with Agencourt AMPure XP SPRI beads according to the manufacture's protocol (Beckman Coluter). Samples were sequenced on an Illumina HiSeq 2000. Barcodes in the P7 primer were deconvuluted and the sgRNA sequence was mapped to a reference file of sgRNAs in the ASIAGO library. To normalize for different numbers of reads per condition, read counts per sgRNA were normalized to 10^7 total reads per sample. This normalized value was then log-2 transformed. sgRNAs that were not sequenced were arbitrarily assigned a read count of 1. sgRNA frequencies were then analyzed using STARS software, which is available at broadinstitute.org/rnai/public/software/index (Doench et al, in press). STARS computes a score for each gene of rank-ordered sgRNA hits that was above […] of total sequenced sgRNAs. A STAR score was only assigned to genes that scored above this threshold in at least two of four independent genome wide pools.

MNoV^CR6 = assay: CRISPR screen in BV2-Cas9 cells, sgRNA enrichment after MNoV^CR6 infection; assay type: cell-based, murine norovirus; conditions: for log2 fold enrichment after MNV infection relative to mock infected cells, CR6 MOI 0.05: MNoV^CR6, MOI 0.05, ten days post-infection; for log2 fold enrichment after MNV infection relative to mock infected cells, CR6 MOI 5: MNoV^CR6, MOI 5, ten days post-infection
Description: as §1, §2

MNoV^CW3 [2] = assay: MNoV neutralization with α-CD300lf and sCD300lf (cytotoxicity, CellTiter-Glo); assay type: cell-based, murine norovirus; conditions: virus preincubated with protein, 0.01 to 10 μg/ml; 24 hours post-infection
Description: MNoV neutralization was assessed by measuring cytotoxicity. 2.5×10^4 BV2 cells were plated per well of a 96-well plate. For antibody-mediated neutralization, cells were then incubated for 1 hour at 37° C. with polyclonal α-CD300lf (R&D systems AF2788) or an isotype control (R&D systems AB-108-C) at a final concentration from 0.01 to 10 μg/ml. MNoV^CW3 was then added at an MOI of 5 in a total volume of 100 μl. After 24 hours at 37° C., 25 μl of CellTiter-Glo (Promega) was added per well to measure cellular ATP concentrations. For sCD300lf neutralization, the assay was performed similarly except that 1.25×10^5 PFU of MNoV^CW3 was incubated with sCD300lf or a control protein (Domain III of West Nile Virus Envelope) at a final concentration from 0.01 μg to 10 μg/ml prior to addition of BV2 cells. Relative luminescence units were detected on Molecular Devices SpectraMax M2 plate reader. All conditions were normalized to an uninfected control. Each condition was done in quadruplicate in each of three independent experiments.

MNoV^CW3 [3] = assay: BMDM infection, FACS for intracellular MNoV NS1/2 expression; assay type: cell-based, murine norovirus; conditions: virus preincubated with sCD300lf or cells treated with α-CD300lf; MOI 5.0
Description: BL6 myeloid progenitors were obtained from mice (FIG. 2E) or from HoxB8-immortalized progenitors (FIG. 2D) as previously described.HoxB8-immortalized progenitors were maintained in RPMI 1640 supplemented with 1 μM β-estradiol and 25 ng/ml GM-CSF. Progenitors were differentiated into macrophages by washing the cells in PBS and plating 1×10^6 cells into BMDM media (Dulbeco's Modified Eagle Medium, 10% fetal bovine serum, 5% horse serum, 10% CMG14-12 [6], 1 mM sodium pyruvate, 2 mM L-glutamine). After 7 days of differentiation, macrophages were dissociated and 5×10^6 cells/well were seeded into a 6-well dish. Three days later, MNoV^CW3 was added to cells at an MOI of 5.0. One day post infection, MNoV NS1/2 expression was detected by flow cytometry.
Infected cells were fixed and permeabilized with Cytofix/Cytoperm (BD biosciences) Rabbit polyclonal antibody targeting the MNoV nonstructural protein NS1/2 antibody was added at a 1:5000 dilution (Gift from Vernon Ward). Cells were incubated for 30 min. at room temperature. Cells were then washed and DyLight 649 donkey anti-rabbit IgG was added and incubated for 30 min. Cells were then washed and analyzed on an LSRII flow cytometer (BD). At least 20,000 events were collected per condition. Each experiment was performed in triplicate in each of three independent experiments.

MNoV^CW3 [4] = assay: Spleen-derived MNoV neutralization (plaque assay); assay type: cell-based, murine norovirus; conditions: 75 PFU spleen-derived or BV2-derived virus, 10 μg/ml, 30 min preincubation
Description: BV2 cells were seeded at 1×10^6 cells/well of a six-well plate. 16-24 hours later, media was removed and 10-fold dilutions of cell lysate is applied to each well for 1 hour with gentle rocking. Viral inoculum was removed and 2 ml of overlay media was added (MEM, 10% FBS, 2 mM L-Gluatmine, 10 mM HEPES, and 1% methylcellulose). Plates were incubated for 2-3 days prior to visualization with crystal violet solution (0.2% crystal violet and 20% ethanol).
To isolate in vivo derived MNoV^CW3, five 7-8 week old C57BL/6J were inoculated PO with 10^6 PFU MNoV^CW3 in 25 μl PBS. Three days post inoculation, mice were sacrificed and spleens were harvested. Spleens were processed by bead beating with 1 mm silica beads (Biospec, Bartlesville, Okla.) for 1 minute. The spleen extract was centrifuged for 5 minutes at 3,000 g, the supernatant was filtered through a 0.22 μm filter, frozen at −80° C., and titered on BV2 cells as described previously.
75 PFU of either BV2 cell-derived or spleen-derived MNoV^CW3 was incubated for 30 min. at room temperature with either sCD300lf or WNV E DIII at 10 μg/ml final concentration in 100 μl total volume of D10. Each sample was then added to a confluent monolayer of BV2 cells in a 6-well plate and incubated for 1 hr. at room temperature. […] Complete media containing methylcellulose was then added and plaque formation was assessed as described previously. […]

MNoV^CW3 [5] = assay: Challenge of STAT1−/− mice with preincubated MNoV^CW3, survival; assay type: in vivo, murine norovirus; conditions: PO 10^3 or 10^5 PFU MNoV^CW3 preincubated at 10 μg/ml, 28 days
Description: B6.129S(Cg)-Stat1^tm1Div/J (STAT1^−/−) mice and C57BL/6J (Jackson Laboratories, Bar Harbor, Me.) and Fut2^−/− (B6.129X1-Fut2^tm1Sdo/J) mice (a generous gift from Dr. Alexander V. Chervonsky) were housed in a specific-pathogen free environment at Washington University. The care and use of all animals was approved by and in accordance with the Washington University Animal Studies Committee. For the challenge of STAT^−/− mice, MNoV^CW3 was incubated with sCD300lf or WNV E DIII at a final concentration of 10 μg/ml for 30 minutes at room temperature. STAT1^−/− mice were challenged with 25 μl PO of 10^3 or 10^5 PFU of MNoV^CW3 diluted in D10. STAT1^−/− mice were singly housed immediately after inoculation and monitored daily for survival for 28 days. Experiments were performed three independent times with gender-balanced littermate controls at both 10^3 and 10^5 PFU challenge doses.

MNoV^CW3 [6] = assay: MNoV binding assay to BV2 cells (bound genomes by qPCR); assay type: cell-based, murine norovirus
Description: MNoV^CW3 quantitiatve PCR (qPCR) was performed as previously described. Briefly, 5 μl of extracted viral RNA was used for cDNA synthesis using random hexamers and ImProm Reverse Transcriptase (Promega, Madison, Wis.) in 20 μl total volume. TaqMan qPCR was performed in triplicate on each sample and standard with forward primer SEQ ID NO:20 (5′ […] 3′), reverse primer SEQ ID NO:21 (5′ GCGCTGCGCCATCACTC 3′), and probe.
MNoV^CW3 binding to BV2 cells was performed for 1 hour at 4° C. in 0.5 ml complete growth media. sCD300lf was incubated with MNoV^CW3 for 30 minutes at room temperature prior to addition to cells. α-CD300lf was incubated with cells for 30 minutes at 4° C. prior to the addition of MNoV^CW3. BV2 cells were used at final concentration of 2×10^6 cells/ml, and MNoV^CW3 was used at a final concentration of 1.6×10^9 copies/ml (2.5×10^6 PFU/ml). Cells were centrifuged at 500 g for 5 min at 4° C. to remove unbound virus. Cells were washed with four 1.0 ml washes with PBS containing 2.5% FBS and 2 mM EDTA. The cell pellet was resuspended in 100 μl PBS, and RNA was extracted with the ZR Viral RNA kit (Zymo Research) according to manufacturer instructions. qPCR was performed as described above. Binding experiments were done in triplicate in each of at least three independent experiments. A condition containing virus but no cells was used to determine assay background.
To determine the effect of glycans on MNoV binding, parental BV2 cells, ΔCD300lf BV2 clone 1 cells complemented with an empty lentivirus, and ΔCD300lf BV2 clone 1 cells complemented with CD300lf were cultured in the presence of 1 μg/ml of kifunensine (Santa Cruz Biotechnology) for at least 48 hours prior to use. Kifunensine activity was determined by staining cells with FITC-conjugated wheat germ agglutinin (WGA) at 1 μg/ml final concentration (Sigma Aldrich). The reduction in glycosylation was determined by comparing the mean fluorescence intensity (MFI) with and without kifunensine treatment. WGA binding was determined at the time of each binding assay.

| Molecule | log2 fold enrichment after MNV infection relative to mock infected cells, CW3 MOI 0.05 (MNoV^CW3 [1]) [log2 fold enrichment] | log2 fold enrichment after MNV infection relative to mock infected cells, CW3 MOI 5 (MNoV^CW3 [1]) [log2 fold enrichment] | log2 fold enrichment after MNV infection relative to mock infected cells, CR6 MOI 0.05 (MNoV^CR6) [log2 fold enrichment] | log2 fold enrichment after MNV infection relative to mock infected cells, CR6 MOI 5 (MNoV^CR6) [log2 fold enrichment] | MNoV^CW3-induced cytopathic effect in BV2 cells (cell viability) (MNoV^CW3 [2]) | MNoV^CW3 infection of primary bone marrow-derived macrophages (NS1/2 expression by FACS) (MNoV^CW3 [3]) | Neutralization of MNoV isolated from spleens of MNoV^CW3-infected mice (plaque assay) (MNoV^CW3 [4]) | Protection from MNoV induced lethality (survival) (MNoV^CW3 [5]) | MNoV^CW3 binding to BV2ΔCD300lf cells (MNoV^CW3 [6]; BV2ΔCD300lf cells, cells treated with α-CD300lf or virus premixed with sCD300lf) | MNoV^CW3 binding to BV2 cells (MNoV^CW3 [6]; wild type BV2 cells, cells treated with α-CD300lf or virus preincubated with sCD300lf, 1 hour at 4° C.) |
| --- | --- | --- | --- | --- | --- | --- | --- | --- | --- | --- |
| GGAAGAGGATGAGCAGAGCA: sgRNA used in screen, no identical CD300 match marked (listed as DNA, chemistry not given here) | −6.4 | −6.4 | −6.4 | −6.4 |  |  |  |  |  |  |
| ACAGGTCCAGAGGAGGTGAG: sgRNA used in screen, matches CD300ld, CD300lf, CD300lh (listed as DNA, chemistry not given here) | 0.0 | 13.0 | 0.0 | 13.1 |  |  |  |  |  |  |
| ACGGAAGTGAGAAAGAAAAG: sgRNA used in screen, matches CD300le (listed as DNA, chemistry not given here) | −6.6 | −6.6 | −6.6 | −6.6 |  |  |  |  |  |  |
| B1 |  |  |  |  | neutralized MNoV^CW3-induced cytopathic effect | inhibited | remained sensitive to sCD300lf inhibition | able to protect from MNoV induced lethality | not further inhibited | reduced MNoV binding |
